This test concerns the target T1, Ba/F3 cell EGFR Exon20 ins NPH (Homo sapiens, UniProt P00533, INS773NPH).
T1 construct: expressed in transfected cells; host or cells: Ba/F3
In words: Ba/F3 cell proliferation suppression, EGFR Exon20 ins NPH. The test is classed as cell-based. The conditions noted are these: GI50 class; Ba/F3 cell line with NPH inserted at Exon20 of EGFR; 72 hours. Put shortly: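 After 72 h compound exposure (twelve 3-fold steps, 0.3 nM–50 um final), live cells were measured by CellTiter-Glo luminescence and growth expressed as % of control to derive GI50. Cells were seeded at 3000–5000 per well a day earlier; Ba/F3 medium contained IL-3; three repeats.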
`C=CC(=O)Nc1cc(Nc2cc(N3OCC[C@@H]3c3ccccc3)ncn2)c(OC)cc1N1CCC(N2CCN(C(C)C)CC2)CC1` [Example 283, N-(2-(4-(4-isopropylpiperazine-1-yl)piperidine-1-yl)-4-methoxy-5-((6-((R)-3-phenylisoxazolidine-2-yl)pyrimidine-4-yl)amino)phenyl) acrylamide]: the “Ba/F3 (NPH) Activity” value is given as “A (GI50 < 50 nM)”.

Regarding `C=CC(=O)Nc1cc(Nc2cc(N3OCC[C@@H]3c3ccc(C)nc3)ncn2)c(OC)cc1N1C[C@@H]2C[C@H]1CO2` [Example 233, N-(2-((1S,4S)-2-oxa-5-azabicyclo[2.2.1]heptane-5-yl)-4-methoxy-5-((6-((R)-3-(6-methylpyridine-3-yl)isoxazolidine-2-yl)pyrimidine-4-yl)amino)phenyl) acrylamide], the “Ba/F3 (NPH) Activity” value is listed as “C (500 nM ≤ GI50 < 5000 nM)”.

Turning to `C=CC(=O)Nc1cc(Nc2cc(N3OCC[C@@H]3c3ccc(F)c(Cl)c3F)ncn2)c(OC)cc1N1CCO[C@@H](C)C1` [compound 657, N-(5-((6-((R)-3-(3-chloro-2,4-difluorophenyl)isoxazolidine-2-yl)pyrimidine-4-yl)amino)-4-methoxy-2-((S)-2-methylmorpholino)phenyl)acrylamide], the “Ba/F3 (NPH) Activity” value was “A (GI50 < 50 nM)”.

Take `C=CC(=O)Nc1cc(Nc2cc(N3OCC[C@@H]3c3ccc(F)cc3F)ncn2)c(OC)cc1N1CCC(N(C)C)CC1` [compound 384, N-(5-((6-((R)-3-(2,4-difluorophenyl)isoxazolidine-2-yl)pyrimidine-4-yl)amino)-2-(4-(dimethylamino)piperidine-1-yl)-4-methoxyphenyl) acrylamide]: the “Ba/F3 (NPH) Activity” value is reported as “A (GI50 < 50 nM)”.

Turning to `C=CC(=O)Nc1cc(Nc2cc(N3OCC[C@@H]3c3cccc(Cl)c3Cl)ncn2)c(OC)cc1N1CCC(N2CCN(C)CC2)CC1` [compound 565, N-(5-((6-((R)-3-(2,3-dichlorophenyl)isoxazolidine-2-yl)pyrimidine-4-yl)amino)-4-methoxy-2-(4-(4-methylpiperazine-1-yl)piperidine-1-yl)phenyl) acrylamide], the “Ba/F3 (NPH) Activity” value is “A (GI50 < 50 nM)”.

With `C=CC(=O)Nc1cc(Nc2cc(N3OCC[C@@H]3c3cccc(F)c3Cl)ncn2)c(OC)cc1N1CCC(N2CCN(C3CCC3)CC2)CC1` [Example 192, N-(5-((6-((R)-3-(2-chloro-3-fluorophenyl)isoxazolidine-2-yl)pyrimidine-4-yl)amino)-2-(4-(4-cyclobutylpiperazine-1-yl)piperidine-1-yl)-4-methoxyphenyl) acrylamide], the “Ba/F3 (NPH) Activity” value is on record as “A (GI50 < 50 nM)”.

As to `C=CC(=O)Nc1cc(Nc2cc(N3OCC[C@@H]3c3cccc(OC)c3)ncn2)c(OC)cc1N1CCC(N2CC[C@H](N(C)C)C2)CC1` [compound 729, N-(2-(4-((S)-3-(dimethylamino)pyrolidine-1-yl)piperidine-1-yl)-4-methoxy-5-((6-((R)-3-(3-methoxyphenyl)isoxazolidine-2-yl)pyrimidine-4-yl)amino)phenyl)acrylamide], the “Ba/F3 (NPH) Activity” value is recorded as “A (GI50 < 50 nM)”.

`C=CC(=O)Nc1cc(Nc2cc(N3OCC[C@@H]3c3cc(F)cc(F)c3)ncn2)c(OC)cc1N1CCC(N2C[C@@H](C)N(C3CC3)C[C@@H]2C)CC1` [Example 108, N-(2-(4-((2S,5R)-4-cyclopropyl-2,5-dimethylpiperazine-1-yl)piperidine-1-yl)-5-((6-((R)-3-(3,5-difluorophenyl)isoxazolidine-2-yl)pyrimidine-4-yl)amino)-4-methoxyphenyl) acrylamide]: the “Ba/F3 (NPH) Activity” value is given as “A (GI50 < 50 nM)”.

Consider `C=CC(=O)Nc1cc(Nc2cc(N3OCC[C@H]3c3c(F)cccc3F)ncn2)c(OC)cc1N1CCC(N2CCN(C(C)=O)CC2)CC1` [compound 310, N-(2-(4-(4-acetylpiperazine-1-yl)piperidine-1-yl)-5-((6-((S)-3-(2,6-difluorophenyl)isoxazolidine-2-yl)pyrimidine-4-yl)amino)-4-methoxyphenyl) acrylamide], for which the “Ba/F3 (NPH) Activity” value is on record as “C (500 nM ≤ GI50 < 5000 nM)”.

Regarding `C=CC(=O)Nc1cc(Nc2cc(N3OCC[C@@H]3Cc3ccc(C(F)(F)F)cc3)ncn2)c(OC)cc1N1CCC(N2CCN(C3CC3)CC2)CC1` [compound 1050, N-(2-(4-(4-cyclopropylpiperazine-1-yl)piperidine-1-yl)-4-methoxy-5-((6-((S)-3-(4-(trifluoromethyl)benzyl)isoxazolidine-2-yl)pyrimidine-4-yl)amino)phenyl) acrylamide], the “Ba/F3 (NPH) Activity” value is given as “B (50 nM ≤ GI50 < 500 nM)”.

For the compound `C=CC(=O)Nc1cc(Nc2cc(N3OCC[C@@H]3c3cc(F)cc(F)c3)ncn2)c(C)cc1N1CCC(N2CCN(C3CC3)CC2)CC1` [compound 534, N-(2-(4-(4-cyclopropylpiperazine-1-yl)piperidine-1-yl)-5-((6-((R)-3-(3,5-difluorophenyl)isoxazolidine-2-yl)pyrimidine-4-yl)amino)-4-methylphenyl) acrylamide], the “Ba/F3 (NPH) Activity” value was “A (GI50 < 50 nM)”.

Regarding `C=CC(=O)Nc1cc(Nc2cc(N3OCC[C@@H]3c3cc(F)cc(F)c3)ncn2)c(OC)cc1N1CCO[C@H](C)C1` [compound 338, N-(5-((6-((R)-3-(3,5-difluorophenyl)isoxazolidine-2-yl)pyrimidine-4-yl)amino)-4-methoxy-2-((R)-2-methylmorpholino)phenyl)acrylamide], the “Ba/F3 (NPH) Activity” value is on record as “B (50 nM ≤ GI50 < 500 nM)”.

With `C=CC(=O)Nc1cc(Nc2cc(N3OCC[C@@H]3c3ccc(Cl)c(F)c3)ncn2)c(OC)cc1N1CCC(N2CCN(C3COC3)CC2)CC1` [Example 83, N-(5-((6-((R)-3-(4-chloro-3-fluorophenyl)isoxazolidine-2-yl)pyrimidine-4-yl)amino)-4-methoxy-2-(4-(4-(oxetane-3-yl)piperazine-1-yl)piperidine-1-yl)phenyl)acrylamide], the “Ba/F3 (NPH) Activity” value is reported as “A (GI50 < 50 nM)”.

As to `C=CC(=O)Nc1cc(Nc2cc(N3OCC[C@@H]3c3cccc(F)c3Cl)ncn2)c(OC)cc1N1CCC(N2CCN(CC)CC2)CC1` [compound 602, N-(5-((6-((R)-3-(2-chloro-3-fluorophenyl)isoxazolidine-2-yl)pyrimidine-4-yl)amino)-2-(4-(4-thylpiperazine-1-yl)piperidine-1-yl)-4-methoxyphenyl) acrylamide], the “Ba/F3 (NPH) Activity” value was “A (GI50 < 50 nM)”.

For the compound `C=CC(=O)Nc1cc(Nc2cc(N3OCC[C@H]3Cc3ccccc3)ncn2)c(OC)cc1N1CCN(CC2CC2)CC1` [compound 967, N-(5-((6-((R)-3-benzylisoxazolidine-2-yl)pyrimidine-4-yl)amino)-2-(4-(cyclopropylmethyl)piperazine-1-yl)-4-methoxyphenyl) acrylamide], the “Ba/F3 (NPH) Activity” value is given as “C (500 nM ≤ GI50 < 5000 nM)”.

For `C=CC(=O)Nc1cc(Nc2cc(N3OCC[C@@H]3c3ccc(Cl)c(Cl)c3)ncn2)c(OC)cc1N1CCN(CC)CC1` [compound 672, N-(5-((6-((R)-3-(3,4-dichlorophenyl)isoxazolidine-2-yl)pyrimidine-4-yl)amino)-2-(4-ethylpiperazine-1-yl)-4-methoxyphenyl) acrylamide], the “Ba/F3 (NPH) Activity” value was “A (GI50 < 50 nM)”.

With `C=CC(=O)Nc1cc(Nc2cc(N3OCC[C@@H]3c3cc(F)ccc3F)ncn2)c(OC)cc1N1CCC(N2C[C@@H]3C[C@H]2CO3)CC1` [compound 826, N-(2-(4-((1S,4S)-2-oxa-5-azabicyclo [2.2.1]heptane-5-yl)piperidine-1-yl)-5-((6-((R)-3-(2,5-difluorophenyl)isoxazolidine-2-yl)pyrimidine-4-yl)amino)-4-methoxyphenyl) acrylamide], the “Ba/F3 (NPH) Activity” value is recorded as “A (GI50 < 50 nM)”.

In the case of `C=CC(=O)Nc1cc(Nc2cc(N3OCC[C@@H]3c3ccc(Cl)c(F)c3)ncn2)c(OC)cc1N1CCC(N2CCN(C(C)=O)CC2)CC1` [compound 796, N-(2-(4-(4-acetylpiperazine-1-yl)piperidine-1-yl)-5-((6-((R)-3-(4-chloro-3-fluorophenyl)isoxazolidine-2-yl)pyrimidine-4-yl)amino)-4-methoxyphenyl) acrylamide], the “Ba/F3 (NPH) Activity” value is “A (GI50 < 50 nM)”.

For `C=CC(=O)Nc1cc(Nc2cc(N3OCCC3(C)c3ccccc3)ncn2)c(OC)cc1N1CCC(N2CCN(CC)CC2)CC1` (stereo not shown) [Example 261, N-(2-(4-(4-ethylpiperazine-1-yl)piperidine-1-yl)-4-methoxy-5-((6-(3-methyl-3-phenylisoxazolidine-2-yl)pyrimidine-4-yl)amino)phenyl) acrylamide], the “Ba/F3 (NPH) Activity” value is “C (500 nM ≤ GI50 < 5000 nM)”.

For the compound `C=CC(=O)Nc1cc(Nc2cc(N3OCC[C@@H]3c3ccc(Cl)c(Cl)c3)ncn2)c(OC)cc1N1C[C@@H]2C[C@H]1CN2C` [compound 684, N-(5-((6-((R)-3-(3,4-dichlorophenyl)isoxazolidine-2-yl)pyrimidine-4-yl)amino)-4-methoxy-2-((1S,4S)-5-methyl-2,5-diazabicyclo[2.2.1]heptane-2-yl)phenyl) acrylamide], the “Ba/F3 (NPH) Activity” value is recorded as “A (GI50 < 50 nM)”.

Regarding `C=CC(=O)Nc1cc(Nc2cc(N3OCC[C@@H]3c3ccc(Cl)c(Cl)c3)ncn2)c(OC)cc1N1CC[C@@H](N(C)C)C1` [compound 682, N-(5-((6-((R)-3-(3,4-dichlorophenyl)isoxazolidine-2-yl)pyrimidine-4-yl)amino)-2-((R)-3-(dimethylamino)pyrolidine-1-yl)-4-methoxyphenyl) acrylamide], the “Ba/F3 (NPH) Activity” value is given as “A (GI50 < 50 nM)”.

With `C=CC(=O)Nc1cc(Nc2cc(N3OCC[C@@H]3c3c(F)ccc(F)c3F)ncn2)c(OC)cc1N1CCC(N2CCO[C@@H](C)C2)CC1` [compound 645, N-(4-methoxy-2-(4-((S)-2-methylmorpholino)piperidine-1-yl)-5-((6-((R)-3-(2,3,6-trifluorophenyl)isoxazolidine-2-yl)pyrimidine-4-yl)amino)phenyl)acrylamide], the “Ba/F3 (NPH) Activity” value was “A (GI50 < 50 nM)”.

Values taken from patent US12157730B2, “Heteroaryl derivative, method for producing same, and pharmaceutical composition comprising same as effective component” (VORONOI INC., priority 2019, dated 2024).
